EP0059645A1, “Method and kit for identification of beta-lactamases” (NATIONAL RESEARCH DEVELOPMENT CORPORATION, priority 1981, dated 1982)
Marks after values point to notes of the source that are not given here.

Tests used:
Experiment in all cases: Competitive assay with nitrocefin (RSAI)
PSE-1 = PSE-1 (Pseudomonas aeruginosa, UniProt Q03170); assay type: biochemical, Ps.aerug. 1937E; parameters: Normally, therefore, the beta-lactamase has to be extracted from the cells for the purpose of the present invention; endogenous in cells
PSE-3 = assay type: biochemical, Ps.aerug. 1920E
PSE-2 = PSE-2 (Pseudomonas aeruginosa, UniProt P14489); assay type: biochemical, Ps.aerug. 1973E; parameters: Normally, therefore, the beta-lactamase has to be extracted from the cells for the purpose of the present invention; endogenous in cells
SHV-1 = SHV-1 (Escherichia coli, UniProt P0AD63); assay type: biochemical, E. coli 2008E; parameters: the beta-lactamase has to be extracted from the cells for the purpose of the present invention; made in house; host or cells: E. coli 2008E (crude cell extract)
OXA-3 = OXA-3 (Pseudomonas aeruginosa, UniProt Q51429); assay type: biochemical, E. coli R57B; parameters: Normally, therefore, the beta-lactamase has to be extracted from the cells for the purpose of the present invention; endogenous in cells
PSE-4 = PSE-4 (Pseudomonas aeruginosa, UniProt P16897); assay type: biochemical, Ps.aerug. 1559E; parameters: Normally, therefore, the beta-lactamase has to be extracted from the cells for the purpose of the present invention; endogenous in cells
[1] = molecular target: T1, Chromosomal, induced beta-lactamase enzyme (Pseudomonas aeruginosa, UniProt P24735); assay type: biochemical, Ps.aerug. 1937E + ampicillin
T1 construct: Normally, therefore, the beta-lactamase has to be extracted from the cells for the purpose of the present invention; endogenous in cells; host or cells: Pseudomonas aeruginosa 1937E grown with ampicillin

K17 = assay type: biochemical, Klebsiella 17
Description: (§1) It is convenient to express the results in terms of a Relative Substrate Affinity Index (RSAI) value.
(§2) RSAI = Concentration of competing substrate which gives 50% inhibition of ring-opening hydrolysis of the chromogenic substrate
(§3) Concentration of chromogenic substrate in the assay A high RSAI value therefore indicates a low affinity of the beta-lactamase for that competing substrate, and therefore predicts resistance of a beta-lactam competing substrate to hydrolysis by the beta-lactamase. Low RSAI values, in contrast, predict sensitivity to hydrolysis by a beta-lactamase.
(§4) Beta-lactam antibiotics which bind to the TEM-2 enzyme compete with nitrocefin in the assay. […] . This concentration of ampicillin is a direct estimate of the relative affinity of the TEM-2 enzyme for ampicillin. […] . The RSAI value was therefore 1.3.

HMS-1 = assay type: biochemical, E. coli 1946
K1073 = assay type: biochemical, Klebsiella 1073
Description: as §1, §2, §3, §4

K10317 = assay type: biochemical, K.aerog. 10317
Description: as §1, §2, §3, §4

OXA-1 = OXA-1 (Escherichia coli, UniProt P13661); assay type: biochemical, E. coli 1527E; parameters: the beta-lactamase has to be extracted from the cells for the purpose of the present invention; made in house; host or cells: E. coli 1527E according to the earlier reading (crude cell extract)
[2] = molecular target: T2, Chromosomal, constitutive beta-lactamase enzyme (Enterobacter cloacae, UniProt P05364); assay type: biochemical, E. cloacae
T2 construct: Normally, therefore, the beta-lactamase has to be extracted from the cells for the purpose of the present invention; endogenous in cells

OXA-2 = OXA-2 (Escherichia coli, UniProt P0A1V9); assay type: biochemical, E. coli R46; parameters: the beta-lactamase has to be extracted from the cells for the purpose of the present invention; made in house; host or cells: E. coli carrying R46 according to the earlier reading (crude cell extract)
[3] = molecular target: Chromosomal, hyper-induced beta-lactamase enzyme (Escherichia coli, UniProt P00811); assay type: biochemical, E. coli SNU35; parameters: Normally, therefore, the beta-lactamase has to be extracted from the cells for the purpose of the present invention; endogenous in cells; host or cells: E. coli SNU 35 (artificially produced strain)
TEM-1 = TEM-1 (Escherichia coli, UniProt P62593); assay type: biochemical, E. coli 2136E; parameters: the beta-lactamase has to be extracted from the cells for the purpose of the present invention; made in house; host or cells: E. coli 2136E (plasmid-bearing strain; crude cell extract)
TEM-2 = TEM-2 (Escherichia coli, UniProt P62593, Q37K); assay type: biochemical, E. coli 1725E
Description: as §1, §2, §3, §4

| SMILES | RSAI (PSE-1) | RSAI (PSE-3) | RSAI (PSE-2) | RSAI (SHV-1) | RSAI (OXA-3) | RSAI (PSE-4) | RSAI [1] | RSAI (K17) | RSAI (HMS-1) | RSAI (K1073) | RSAI (K10317) | RSAI (OXA-1) | RSAI [2] | RSAI (OXA-2) | RSAI [3] | RSAI (TEM-1) | RSAI (TEM-2) |
| --- | --- | --- | --- | --- | --- | --- | --- | --- | --- | --- | --- | --- | --- | --- | --- | --- | --- |
| CC1(C)S[C@@H]2[C@H](NC(=O)[C@H](N)c3ccc(O)cc3)C(=O)N2[C@H]1C(=O)O [Amoxy-cillin, amoxycillin] | 0.9 | 1.5 | 2.2 | 2.8 | 8.6 | 1 | 0.035 | 1.3 | 0.8 | 1.7 | 7 | 1.2 | 0.05 | 8 | 0.02 | 1.3 | 2.2 |
| CC1(C)S[C@@H]2[C@H](NC(=O)[C@H](NC(=O)N3CCNC3=O)c3ccccc3)C(=O)N2[C@H]1C(=O)O [Azlo-cillin, Azlocillin] | 0.23 | 0.54 | 2.64 | 1.6 | 9 | 0.36 | 0.05 | 1.1 | 0.42 | 1.9 | 3 | 1.4 | 0.05 | 19 | 0.02 | 1 | 1.1 |
| CC1(C)[C@H](C(=O)O)N2C(=O)C[C@H]2S1(=O)=O [CP 45,899] | 0.036 | 0.0014 | 16 | 0.018* | 0.05* | 0.015* | 2.5* | 0.5 | 0.025* | 0.18 | 0.08 | 8* | 6.5* | 0.15* | 1.7* | 0.02 | 0.04* |
| CC1(C)S[C@@H]2[C@H](NC(=O)C(C(=O)O)c3ccccc3)C(=O)N2[C@H]1C(=O)O (stereo partly drawn) [Carbeni-cillin, carbenicillin] | 1.4 | 1.35 | 5.5 | 0.5 | 12 | 3 | 0.008 | 0.4 | 0.09 | 0.5 | 0.7 | 0.5 | 0.0003* | 15 | 0.00005* | 0.6 | 0.4 |
| CCN1CCN(C(=O)N[C@@H](C(=O)N[C@@H]2C(=O)N3C(C(=O)O)=C(CSc4nnnn4C)CS[C@H]23)c2ccc(O)cc2)C(=O)C1=O [Cefopera-zone, cefoperazone] | 0.019 | 0.07 | 0.48 | 4.5 | 2 | 0.014 | 0.5 | 0.006 | 0.2 | 2.2 | 5 | 4.5 | 1.3 | 2 | 1.9 | 8 | 10 |
| CC(C)(O/N=C(\C(=O)N[C@@H]1C(=O)N2C(C(=O)[O-])=C(C[n+]3ccccc3)CS[C@H]12)c1csc(N)n1)C(=O)O [Ceftazidime (GR 20,263), Ceftazidime] | 600 | 144 | >400 | 1140 | >400 | 420 | 0.46* | 880 | 10 | 1420 | – | >2000 | 0.1* | 900 | 0.2* | >400 | 1500 |
| CO/N=C(\C(=O)N[C@@H]1C(=O)N2C(C(=O)O)=CCS[C@H]12)c1csc(N)n1 [Cefti-zoxime, ceftizoxime] | 360 | 120 | 128 | 1400 | 200 | 380 | 500 | 220 | 66 | 720 | 630 | 50 | 0.1 | 110 | 1.7 | 1000 | 1000 |
| CO/N=C(\C(=O)N[C@@H]1C(=O)N2C(C(=O)O)=C(COC(N)=O)CS[C@H]12)c1ccco1 [Cefuroxime] | 50 | 12 | 1.7 | 20 | 0.003 | 34 | 0.0001 | 2.3 | 16 | 12 | 14 | 10 | 0.0002 | 3.6 | 0.002 | 50 | 40 |
| O=C(Cc1cccs1)N[C@@H]1C(=O)N2C(C(=O)[O-])=C(C[n+]3ccccc3)CS[C@H]12 [Cephalo-ridine, cephaloridine] | 6 | 2.2 | 22 | 30 | 4.4 | 3.5 | – | 5.4 | 6 | 19.2 | 30 | 60 | 16 | 4 | 2* | 40 | 20 |
| CC(=O)OCC1=C(C(=O)O)N2C(=O)[C@@H](NC(=O)Cc3cccs3)[C@H]2SC1 [Cephalo-thin, Cephalothin] | 4 | 0.76 | 0.54 | 7 | 0.4 | 6 | 0.7 | 1.8 | 1 | 5.8 | 7 | 4 | 0.6 | 0.7 | 0.8 | 10 | 15 |
